Assay results reported in patent publication US12180213B2, “Substituted pyrazoles showing serotonin 5-HT receptor activity” (Sumitomo Pharma Co., Ltd., priority 2018, dated 2024).
Like-named read-outs stand apart in the source and are kept apart here.

Legend:
human 5-HT1A receptor [1] = target: T1, human 5-HT1A receptor (Homo sapiens (Human), UniProt P08908); assay: Test 2: agonist activity for human 5-HT1A receptor ([35S]GTPγS binding); type: biochemical; settings: for Emax at 10 µM / 5-HT1A agonist activity Emax: agonist activity in the presence of 10 μM of compound, relative to 100 μmol/L 5-HT
T1 sequence (P08908 whole entry): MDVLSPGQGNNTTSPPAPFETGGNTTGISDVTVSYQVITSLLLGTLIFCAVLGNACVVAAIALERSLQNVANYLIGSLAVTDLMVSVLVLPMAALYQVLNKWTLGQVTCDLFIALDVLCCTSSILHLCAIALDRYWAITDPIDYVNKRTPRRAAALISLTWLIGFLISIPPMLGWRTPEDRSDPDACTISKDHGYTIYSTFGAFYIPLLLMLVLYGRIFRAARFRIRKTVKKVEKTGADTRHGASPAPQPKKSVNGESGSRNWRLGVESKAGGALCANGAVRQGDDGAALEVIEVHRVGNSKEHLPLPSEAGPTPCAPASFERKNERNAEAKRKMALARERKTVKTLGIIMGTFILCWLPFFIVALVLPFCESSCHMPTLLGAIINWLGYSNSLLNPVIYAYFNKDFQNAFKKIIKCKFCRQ
Method: Test 2: Evaluation of Agonist Activity for Human 5-HT1A Receptor
CHO cell membrane fraction in which human 5-HT1A receptor was expressed as used in Test 1 was purchased. To a buffer containing guanosine diphosphate were added a test compound dissolved in DMSO, each receptor membrane sample diluted with buffer, and [^35S] Guanosine 5′-O-[gamma-thio]triphosphate (GTPγS). The mixture was incubated at room temperature for 60 minutes. Then, the mixture was added quickly on a glassfiber filter plate (Multiscreen FB, Millipore, Inc.), and vacuum-filtered. Radioactivity remaining on the […] was measured with a liquid scintillation counter. Agonist activity was calculated from the following formula.

human 5-HT1A receptor [2] = target: T1, human 5-HT1A receptor; assay: Test 1: binding activity for human 5-HT1A receptor ([3H]8-OH-DPAT); settings: CHO cell membrane fraction
Method: (§1) Test 1: Evaluation of binding activity for human 5-HT1A receptor, human 5-HT2A receptor, and human D2 receptor
(§2) Binding affinity of the present compound for human 5-HT1A receptor, human 5-HT2A receptor, and human D2 receptor was measured by the following procedures.
(§3) Each mixture was incubated at room temperature for 60 minutes. Then, the mixture was added quickly on a glassfiber filter plate (Multiscreen FB, Millipore, Inc.) coated with 0.3% aqueous polyethylenimine, and vacuum-filtered. Radioactivity remaining on the filter was measured with a liquid scintillation counter (PerkinElmer, Inc.). Binding inhibition rate was calculated from the following formula.
IC50 value was calculated by Hill analysis (Physiology, 1910, 40, 190-200). Ki of each compound was calculated from the following formula.
(§4) Binding inhibition constant (Ki)=IC50/(1+S/Kd) wherein S is concentration of ligand; Kd is a binding dissociation constant of ligand to membrane, which is calculated from a saturated binding experiment conducted with the same cell membrane. A small Ki value means strong binding ability to a receptor.

human 5-HT2A receptor [3] = target: T2, human 5-HT2A receptor (Homo sapiens (Human), UniProt P28223); assay: Test 1: binding activity for human 5-HT2A receptor ([3H]Ketanserin); settings: CHO cell membrane fraction
T2 sequence (P28223 whole entry): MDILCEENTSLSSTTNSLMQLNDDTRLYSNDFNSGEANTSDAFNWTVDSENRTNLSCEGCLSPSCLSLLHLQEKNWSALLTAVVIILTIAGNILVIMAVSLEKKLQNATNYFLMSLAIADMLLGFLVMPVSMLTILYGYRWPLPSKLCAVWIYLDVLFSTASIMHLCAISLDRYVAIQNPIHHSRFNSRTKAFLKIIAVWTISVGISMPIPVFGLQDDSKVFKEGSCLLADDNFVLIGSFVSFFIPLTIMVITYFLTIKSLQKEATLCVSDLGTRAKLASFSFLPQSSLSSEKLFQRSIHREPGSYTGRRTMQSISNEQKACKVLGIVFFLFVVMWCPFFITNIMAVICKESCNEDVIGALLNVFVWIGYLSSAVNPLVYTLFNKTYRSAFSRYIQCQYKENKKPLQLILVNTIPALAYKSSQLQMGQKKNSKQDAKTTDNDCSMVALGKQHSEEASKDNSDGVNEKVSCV
Method: as §1, §2, §3
(§5) Ki of each compound was calculated from the following formula.
as §4

hERG channel = hERG channel (Homo sapiens (Human), UniProt Q12809); assay: Test 6-1: inhibitory activity for hERG channel (auto patch clamp, Qpatch); type: cell-based; settings: whole cell patch clamp, read-out: hERG inhibition IC50
hERG channel, sequence (Q12809 whole entry): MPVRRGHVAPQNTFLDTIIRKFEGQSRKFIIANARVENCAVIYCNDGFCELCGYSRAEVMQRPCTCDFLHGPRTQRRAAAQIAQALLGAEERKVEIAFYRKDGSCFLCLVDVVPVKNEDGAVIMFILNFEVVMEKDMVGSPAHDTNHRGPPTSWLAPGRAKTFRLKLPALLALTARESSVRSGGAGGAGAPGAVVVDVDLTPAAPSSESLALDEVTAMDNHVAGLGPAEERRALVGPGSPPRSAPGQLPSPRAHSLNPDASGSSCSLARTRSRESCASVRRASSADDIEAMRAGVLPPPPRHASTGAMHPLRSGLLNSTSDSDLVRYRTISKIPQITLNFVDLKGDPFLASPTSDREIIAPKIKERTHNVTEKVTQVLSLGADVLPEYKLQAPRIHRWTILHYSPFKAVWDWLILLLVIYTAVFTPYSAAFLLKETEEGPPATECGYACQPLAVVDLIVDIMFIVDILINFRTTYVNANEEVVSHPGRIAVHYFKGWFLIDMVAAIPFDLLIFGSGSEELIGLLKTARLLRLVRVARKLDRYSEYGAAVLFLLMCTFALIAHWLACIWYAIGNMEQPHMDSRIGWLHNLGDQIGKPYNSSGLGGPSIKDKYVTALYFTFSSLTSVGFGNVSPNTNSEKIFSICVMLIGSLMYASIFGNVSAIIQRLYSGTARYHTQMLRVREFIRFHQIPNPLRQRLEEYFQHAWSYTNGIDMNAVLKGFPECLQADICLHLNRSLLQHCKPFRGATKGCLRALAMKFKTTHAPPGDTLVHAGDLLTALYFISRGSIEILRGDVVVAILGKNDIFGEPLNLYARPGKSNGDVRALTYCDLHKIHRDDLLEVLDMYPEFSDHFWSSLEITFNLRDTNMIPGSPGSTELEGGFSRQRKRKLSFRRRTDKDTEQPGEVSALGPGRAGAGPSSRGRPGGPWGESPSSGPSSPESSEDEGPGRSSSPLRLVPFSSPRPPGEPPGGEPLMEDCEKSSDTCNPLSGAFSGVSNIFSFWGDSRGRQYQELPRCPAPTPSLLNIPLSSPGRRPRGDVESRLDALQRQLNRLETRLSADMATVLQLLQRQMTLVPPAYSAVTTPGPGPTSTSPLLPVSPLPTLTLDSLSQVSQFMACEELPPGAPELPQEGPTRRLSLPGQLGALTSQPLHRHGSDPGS
Method: Test 6-1: Evaluation of Inhibitory Activity for hERG Channel
Inhibitory activity of the present compound for hERG channel was measured by whole cell patch clamp method with an auto patch clamp system using CHO cells in which hERG channel involved in human rapidly activating delayed rectifier potassium current (IKr) was forcibly expressed.
(Preparation of cell suspension)
hERG-CHO cells purchased from ChanTest Cop. were cultured in a CO2 incubator at 37° C., and dissociated from a flask with trypsin shortly before the measurement of hERG current, to prepare a cell suspension.
(Preparation of Solution)
Extracellular and intracellular fluid used in the measurement were prepared as follows.
Intracellular fluid: 5.4 mmol/L CaCl2, 1.8 mmol/L MgCl2, 10 mmol/L HEPES, 31 mmol/L KOH, 10 mmol/L EGTA, 120 mmol/L KCl, 4 mmol/L Na2-ATP
Test compound solution: Test compound was dissolved in DMSO to reach the concentration of 2 mmol/L or 20 mmol/L, in order to prepare a test compound solution. […] (Measurement of Current Value and Data Analysis)
The cell suspension, the extracellular fluid, the intracellular fluid, and the measurement plate were set in the auto patch clamp system, and hERG current was measured by whole cell patch clamp method. […] Each pulse interval was 15 seconds. The data analysis was carried out with Qpatch Assay Software (Biolin Scientific). The test was carried out by applying incrementally 4 concentrations of each test compound, and the average of the maximum peak tail currents which were obtained from the last 3 stimulations in each concentration was determined as the evaluated data.

[4] = Test 4: metabolic stability test in human hepatic microsome; type: in vitro ADME; settings: 0.1 mg/mL microsome, 0.1 μmol/L compound, 37° C., 30 minutes
Method: Test 4: Metabolic Stability Test in Human Hepatic Microsome
The stability of the present compound in human hepatic microsome metabolism was evaluated as mentioned below. Human hepatic microsome was obtained from Xenontech. Human hepatic microsome, NADPH, and each test compound were mixed in 25 mmol/L phosphate buffer solution (pH 7.4) to reach the following concentrations as shown below, and the mixture was incubated at 37° C. for 30 minutes. • Human hepatic microsome: 0.1 mg/mL • NAPDH: 3.2 mmol/L • Test compound: 0.1 μmol/L
The residual ratio of the test compound in each sample after 30 minutes was measured by LC-MS, and the metabolic stability in human hepatic microsome was calculated from the following formula. Metabolic stability in human hepatic microsome (mL/min/mg protein)=−LN(residual ratio)/30/0.1

human D2 receptor = human D2 receptor (Homo sapiens (Human), UniProt P14416); assay: Test 1: binding activity for human D2 receptor ([3H]Spiperone); settings: for Ki: [3H]Spiperone, CHO cell membrane fraction; for D2 Ki/5-HT1A Ki: ratio of D2 Ki to 5-HT1A Ki; for D2 Ki/5-HT2A Ki: ratio of D2 Ki to 5-HT2A Ki
human D2 receptor, sequence (P14416 whole entry): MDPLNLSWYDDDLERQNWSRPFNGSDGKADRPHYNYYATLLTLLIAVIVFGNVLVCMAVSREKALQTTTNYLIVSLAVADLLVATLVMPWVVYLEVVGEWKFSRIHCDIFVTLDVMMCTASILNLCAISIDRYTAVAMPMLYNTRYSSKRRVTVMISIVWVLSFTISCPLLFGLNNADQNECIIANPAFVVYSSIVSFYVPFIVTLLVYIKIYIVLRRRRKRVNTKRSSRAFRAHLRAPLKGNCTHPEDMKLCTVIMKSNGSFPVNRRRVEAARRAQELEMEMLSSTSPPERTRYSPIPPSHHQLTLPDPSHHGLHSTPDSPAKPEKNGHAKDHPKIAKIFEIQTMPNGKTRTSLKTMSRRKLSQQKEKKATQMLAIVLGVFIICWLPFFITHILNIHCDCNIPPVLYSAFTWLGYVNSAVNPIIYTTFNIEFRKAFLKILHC
Method: as §1, §2, §3, §5, §4

human 5-HT2A receptor [5] = target: T2, human 5-HT2A receptor; assay: Test 3: antagonist activity for human 5-HT2A receptor (aequorin luminescence, CHO-K1 cells); type: cell-based; settings: against 1 nmol/L 5-HT
Method: Test 3: Evaluation of Antagonist Activity for Human 5-HT2A Receptor
Aequorin, Gα16 protein, and each receptor were transiently expressed in CHO-K1 cells (Chinese hamster ovary). […] Antagonist activity was calculated from the following formula.
Antagonist activity (%)=100×{(Luminescence of well in the presence of 1 nmol/L 5-HT−Luminescence of well containing solvent)−(Luminescence of well in the presence of test compound and 1 nmol/L 5-HT−Luminescence of well containing solvent)}/(Luminescence of well in the presence of 1 nmol/L 5-HT−Luminescence of well containing solvent)

[6] = human, CHO cells that express hERG

| Structure (SMILES) | Emax at 10 µM (human 5-HT1A receptor [1]) [%] | Ki (human 5-HT1A receptor [2]) [nM] | Ki (human 5-HT2A receptor [3]) [nM] | Metabolic stability in human hepatic microsome [4] [mL/min/mg protein] | other results |
| --- | --- | --- | --- | --- | --- |
| Cc1noc2c1C(=O)N(CCN1CCN(c3noc4ccccc34)CC1)CCC2 [Example 38] | 56 | 13.5 | 4.44 | 0.136 | IC50 (hERG channel; [6]): 500 nM |
| O=c1c2ncccc2ccn1CCN1CCN(c2nsc3cc(F)ccc23)CC1 [Example 12] | 32 | 7.03 | – | 0.02 | Ki (human D2 receptor): 311 nM; D2 Ki/5-HT1A Ki (human D2 receptor): 44; D2 Ki/5-HT2A Ki (human D2 receptor): 111 |
| CC1CC(CCN2CCC(c3noc4ccccc34)CC2)C(=O)c2ccn(C)c21 (stereo not drawn) [Example 82] | 61 | 0.61 | 0.87 | 0.072 | – |
| COc1ccc2c(N3CCN(CCN4CCc5cccnc5C4=O)CC3)noc2c1 [Example 149] | 16 | 184 | 217 | – | Ki (human D2 receptor): > 10000 nM; D2 Ki/5-HT1A Ki (human D2 receptor): >54.3; D2 Ki/5-HT2A Ki (human D2 receptor): >46.1 |
| Cn1ncc2c1CCCC(CCN1CCN(c3noc4ccccc34)CC1)C2=O (stereo not drawn) [Example 30] | 42 | – | 0.76 | 0.065 | IC50 (hERG channel; [6]): 900 nM |
| Cn1nc(Br)c2c1CCN(CCN1CCN(c3nsc4ccccc34)CC1)C2=O [Example 69] | – | – | – | – | EC50 (human 5-HT1A receptor [1]; concentration at which half the activity of Emax was obtained): 33.9 nM |
| Cc1cc2c(o1)C(=O)N(CCN1CCN(c3nsc4ccccc34)CC1)CC2 [Example 45] | 65 | – | 3.1 | 0.032 | IC50 (hERG channel; [6]): 7000 nM |
| COc1ccc2c(n1)C(=O)N(CCN1CCC(c3noc4ccccc34)CC1)CC2 [Example 187] | – | – | – | <0.05 | – |
| Cn1nc(Br)c2c1CCN(CCN1CCC(c3noc4ccccc34)CC1)C2=O [Example 70] | – | – | – | – | 5-HT1A agonist activity Emax (human 5-HT1A receptor [1]): 50% |
| COc1ccc2c(n1)C(=O)N(CCN1CCN(c3noc4ccccc34)CC1)CC2 [Example 186] | – | – | – | 0.095 | – |
| Cn1nc2c(c1Br)C(=O)N(CCN1CCN(c3nsc4ccccc34)CC1)CC2 [Example 73] | – | – | – | – | 5-HT1A agonist activity Emax (human 5-HT1A receptor [1]): 62% |
| O=C1c2oc(C3CC3)nc2CCC1CCN1CCN(c2nsc3ccccc23)CC1 (stereo not drawn) [Example 67] | 65 | 1.17 | – | 0.269 | – |
| O=C1c2cnccc2CCN1CCN1CCC(c2noc3ccccc23)CC1 [Example 13] | – | – | – | <0.01 | IC50 (hERG channel; hERG-CHO cells): 1100 nM; IC50 (human 5-HT2A receptor [5]): 71 nM |
| Cc1nc2c(o1)CCN(CCN1CCN(c3noc4ccccc34)CC1)C2=O [Example 39] | 61 | 0.84 | – | 0.016 | Ki (human D2 receptor): 1860 nM |
| O=C1c2ncccc2CCN1CCN1CCN(c2noc3cc(Cl)ccc23)CC1 [Example 124] | – | – | – | – | Ki (human D2 receptor): > 10000 nM |
